Measured values reported in patent US20240116985A1, “STAPLED PEPTIDES AND METHODS THEREOF” (priority 2020, published 2024).
Like-named read-outs stand apart in the source and are kept apart here.

Tests used:
[1] = target: T1, full-length beta-Catenin (Uniprot ID P35222) (Homo sapiens, UniProt P35222); assay: Fluorescence polarization IC50 (beta-catenin / 5FAM-TCF4 10-53 competition); format: binding; conditions: fluorescence polarization; read-out: beta-Catenin FP IC50
T1 construct: 10 nM full-length beta-Catenin (Uniprot ID P35222)
T1 sequence (P35222 1-781): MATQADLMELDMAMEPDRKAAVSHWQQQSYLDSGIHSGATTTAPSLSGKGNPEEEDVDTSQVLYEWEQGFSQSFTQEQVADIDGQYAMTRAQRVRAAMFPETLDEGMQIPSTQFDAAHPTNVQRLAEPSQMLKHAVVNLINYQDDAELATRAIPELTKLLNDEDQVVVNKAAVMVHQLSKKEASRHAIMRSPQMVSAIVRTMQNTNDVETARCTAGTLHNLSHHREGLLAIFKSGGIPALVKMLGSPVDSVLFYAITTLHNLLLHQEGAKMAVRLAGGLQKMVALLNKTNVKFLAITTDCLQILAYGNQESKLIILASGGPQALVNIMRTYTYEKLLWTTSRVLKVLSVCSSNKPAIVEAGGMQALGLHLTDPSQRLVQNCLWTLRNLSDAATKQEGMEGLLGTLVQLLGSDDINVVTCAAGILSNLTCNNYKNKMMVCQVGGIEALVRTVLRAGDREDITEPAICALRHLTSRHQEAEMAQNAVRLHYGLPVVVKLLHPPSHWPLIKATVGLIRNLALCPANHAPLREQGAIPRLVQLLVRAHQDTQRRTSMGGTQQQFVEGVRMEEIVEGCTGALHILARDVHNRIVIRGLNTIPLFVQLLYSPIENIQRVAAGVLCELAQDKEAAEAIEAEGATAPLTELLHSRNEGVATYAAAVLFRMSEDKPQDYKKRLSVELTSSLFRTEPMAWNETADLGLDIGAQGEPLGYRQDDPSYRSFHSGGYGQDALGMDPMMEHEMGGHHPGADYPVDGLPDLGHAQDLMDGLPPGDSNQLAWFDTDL

[2] = target: T2, beta-catenin/TCF4 engagement (Homo sapiens, UniProt P35222); assay: Nano-BRET target engagement assay (B-cat-Halo & TCF4-Luc in HEK293 cells); format: cell-based; conditions: read-out: NanoBRET Abs IC50
T2 construct: expressed in transfected cells; host or cells: HEK293
T2 sequence (P35222 1-781): T1 sequence (P35222 1-781)

SMILES	IC50 [1]	IC50 ([2]; absolute IC50)	IC50 [2]
CC(=O)N1CCC[C@]12CC=CCCCC1(CCCC=CCCCOC(=O)N3CC[C@@](C(=O)N[C@@H](Cc4ccccc4C(F)(F)F)C(=O)N[C@@H](Cc4csc5ccccc45)C(=O)N[C@@H](CCC(=O)N(C)C)C(N)=O)(C3)NC(=O)[C@H](CCC(=O)N3CCOCC3)NC(=O)[C@H](Cc3ccccc3)NC(=O)[C@H](C)NC(=O)[C@H](C)NC(=O)[C@H](Cc3cccc(C(=O)O)c3)NC(=O)[C@H](CC(=O)O)NC1=O)NC(=O)[C@H](CC(C)(C)C)NC(=O)[C@H](CC(=O)O)NC2=O (stereo partly drawn) [I-2538, Ac-PL3-Asp-Npg-B5-Asp-3COOHF-Ala-Ala-Phe-MorphGln-PyrS2-2F3MeF-BztA-Me2Gln-NH2]	14 nM	3500 nM	
CC(=O)N1CCC[C@]12CC=CCCCC1(CCCC=CCCCOC(=O)N3CC[C@@](C(=O)N[C@@H](Cc4ccccc4)C(=O)N[C@@H](Cc4csc5ccccc45)C(=O)N[C@@H](C)C(N)=O)(C3)NC(=O)[C@H](CC(N)=O)NC(=O)[C@H](Cc3ccccc3)NC(=O)[C@H](C)NC(=O)[C@H](CCC(N)=O)NC(=O)[C@H](CCC(N)=O)NC(=O)[C@H](CC(=O)O)NC1=O)NC(=O)[C@H](CC1CCCCC1)NC(=O)[C@H](CC(N)=O)NC2=O (stereo partly drawn) [I-2070, Ac-PL3-Asn-Cha-B5-Asp-Gln-Gln-Ala-Phe-Asn-PyrS2-Phe-BztA-Ala-NH2]	190 nM		> 20000 nM
CC(=O)N1CCC[C@]12CC=CCCCC1(CCCC=CCCCOC(=O)N3CC[C@@](C(=O)N[C@@H](Cc4ccccc4Cl)C(=O)N[C@@H](Cc4csc5ccccc45)C(=O)N[C@@H](CCC(N)=O)C(N)=O)(C3)NC(=O)[C@H](CC(N)=O)NC(=O)[C@H](Cc3ccccc3)NC(=O)[C@H](C)NC(=O)[C@H](C)NC(=O)[C@H](CN(CC(=O)O)Cc3ccccc3)NC(=O)[C@H](CC(=O)O)NC1=O)NC(=O)[C@H](CC(C)(C)C)NC(=O)[C@H](CC(=O)O)NC2=O (stereo partly drawn) [I-1447, Ac-PL3-Asp-Npg-B5-Asp-[Bn]GA-Ala-Ala-Phe-Asn-PyrS2-2C1F-BztA-Gln-NH2]	11 nM	43400 nM	
CC(=O)N1CCC[C@]12CC=CCCCC1(CCCC=CCCCOC(=O)N3CC[C@@](C(=O)N[C@@H](Cc4ccsc4)C(=O)N[C@@H](Cc4csc5ccccc45)C(=O)N[C@@H](Cc4ccc(O)cc4)C(N)=O)(C3)NC(=O)[C@H](CC(N)=O)NC(=O)[C@H](Cc3ccccc3)NC(=O)[C@H](C)NC(=O)C(C)(C)NC(=O)[C@H]([C@@H](C)O)NC(=O)[C@H](CC(N)=O)NC1=O)NC(=O)[C@H](CC(C)(C)C)NC(=O)[C@H](CC(=O)O)NC2=O (stereo partly drawn) [I-2478, Ac-PL3-Asp-Npg-B5-Asn-Thr-Aib-Ala-Phe-Asn-PyrS2-3Thi-BztA-Tyr-NH2]	310 nM	> 20000 nM	
CC(=O)N1CCC[C@]12CC=CCCCC1(CCCC=CCCCOC(=O)N3CC[C@@](C(=O)N[C@@H](Cc4ccccc4C(F)(F)F)C(=O)N[C@@H](Cc4csc5ccccc45)C(=O)N[C@@H](CO)C(N)=O)(C3)NC(=O)[C@H](CC(C)C)NC(=O)[C@H](Cc3ccccc3)NC(=O)[C@H](C)NC(=O)[C@H](C)NC(=O)[C@H](Cc3ccccc3C(=O)O)NC(=O)[C@H](CC(=O)O)NC1=O)NC(=O)[C@H](CC(C)(C)C)NC(=O)[C@H](CC(=O)O)NC2=O (single isomer, unassigned) [I-1661, Ac-PL3-Asp-Npg-B5-Asp-2COOHF-Ala-Ala-Phe-Leu-PyrS2-2F3MeF-BztA-Ser-NH2]	70 nM	8300 nM	
CC(=O)N1CCC[C@]12CCCCCCC1(CCCCCCCOC(=O)N3CC[C@@](C(=O)N[C@@H](Cc4ccsc4)C(=O)N[C@@H](Cc4csc5ccccc45)C(=O)N[C@@H](CCC(N)=O)C(N)=O)(C3)NC(=O)[C@H](CC(C)C)NC(=O)[C@H](Cc3ccccc3)NC(=O)[C@H](C)NC(=O)[C@H](C)NC(=O)[C@H](CC(=O)O)NC(=O)[C@H](CC(=O)O)NC1=O)NC(=O)[C@H](CC(C)(C)C)NC(=O)[C@H](CC(=O)O)NC2=O (stereo partly drawn) [I-1822, Ac-PL3-Asp-Npg-B5-Asp-Asp-Ala-Ala-Phe-Leu-PyrS1-3Thi-BztA-Gln-NH2]	60 nM	> 20000 nM	
